# Source: patent US20240376097A1, “BCL-2 Inhibitor” (BeiGene Ltd., priority 2020, published 2024)
# pIC50: −log10 of the molar value. Read-outs that look alike come from different tables or passages of the source.
# Key:
# [1] = target: Recombinant human Bcl-2 protein (Homo sapiens (Human), UniProt P10415); assay: Bcl-2 TR-FRET Assay; format: binding
# Procedure, shortened: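 Displacement of FITC-labelled Bak peptide (0.5 nM) from 0.05 nM human Bcl-2, detected by TR-FRET with Tb-cryptate anti-6His antibody after 1 h at room temperature. Compounds, 10-point series, preincubated 0.5 h with protein in 20 mM potassium phosphate pH 7.5, 50 mM NaCl. IC50s fitted by four-parameter logistic.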
# [2] = target: recombinant human Bcl-2-G101V protein (Homo sapiens (Human), UniProt P10415, G101V); assay: Bcl-2-G101V TR-FRET Assay; format: binding; details: Bcl-2 G101V mutant, TR-FRET; read-out: Biochemical assay (IC50, nM) Bcl-2 G101V
# Procedure, shortened: (§1)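 Displacement of ligand from recombinant human Bcl-2-G101V measured by TR-FRET (ex337 nm, em490/520 nm), inhibition derived from the 490/520 ratio across compound titrations. IC50 from four-parameter logistic fit.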
# [3] = system: recombinant human Bcl-2-G101V protein; assay: Bcl-2-G101V TR-FRET Assay; format: binding; details: ratio of biochemical IC50 Bcl-2 G101V / Bcl-2 WT
# Procedure, shortened: as §1
# [4] = system: RS4;11 (BCL-2 dependent acute lymphoblastic leukemia cell line); assay: RS4;11 Cell Proliferation Assay; format: cell-based; details: Homo sapiens, RS4-11, RS4;11 cells, read-out: Cellular proliferation assay (IC50, nM) RS4
# Procedure, shortened: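 Viability measured via CellTiter-Glo luminescence after a 48 h, 37 °C exposure to compounds (10 points, highest 1 μM). Seeding was 50,000 RS4;11 cells per well in 10% FBS RPMI-1640; IC50 given as mean.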
# [5] = system: BCL-2 G101V knock-in cell line H96 (derive from RS4;11); assay: Bcl 2-G101V Knock-In RS4;11 Cell Proliferation Assay; format: cell-based; details: Homo sapiens, RS4;11 Bcl-2 G101V knock-in clone H96, 48 hrs, CellTiter-GLO, read-out: Cellular proliferation assay (IC50, nM) RS4
# Procedure, shortened: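 CellTiter-Glo luminescence after 48 h, 37 °C compound treatment (10 concentrations, maximum 1 μM or 10 μM) gave mean IC50 values. Cells were 50,000 per well of H96, a BCL2-G101V knock-in single clone derived from RS4;11 by Cas9 editing.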
# [6] = target: recombinant human Bcl-2 D103Y protein (Homo sapiens (Human), UniProt P10415, D103Y); assay: Bcl-2-D103Y Biochemical Assay (TR-FRET); format: binding; details: for pIC50: TR-FRET, FITC labeled Bak peptide; for Ratio of Bcl-2 D103Y/Bcl-2 WT: ratio of IC50
# Procedure, shortened: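 Compounds titrated against the Bcl-2 D103Y–ligand interaction; inhibition derived from the TR-FRET emission ratio 490 nm/520 nm after 337 nm excitation. Four-parameter logistic fitting gave IC50.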
# [7] = Bcl-2 wild type, TR-FRET, read-out: Biochemical assay (IC50, nM) Bcl-2 WT
# [8] = wild type Bcl-2, unit inferred, read-out: Bcl-2 WT
SMILES,"IC50 [1, 7] [nM]","IC50 [1, 8] [nM]",IC50 [2] [nM],Ratio of Bcl-2 G101V/WT [3],IC50 [4] [nM],IC50 [5] [nM],pIC50 [6],Ratio of Bcl-2 D103Y/Bcl-2 WT [6]
"COc1cc(CN2CCN(C3CC4(CCN(c5ccc(C(=O)NS(=O)(=O)c6ccc(NC[C@H]7CC[C@](C)(O)CC7)c([N+](=O)[O-])c6)c(Oc6cnc7[nH]ccc7c6)c5)CC4)C3)[C@H](c3ccccc3C(C)C)C2)cc2c1OCC2 [Example 239, 2-((1H-pyrrolo[2,3-b]pyridin-5-yl)oxy)-N-((4-((((1r,4r)-4-hydroxy-4-methylcyclohexyl)methyl)amino)-3-nitrophenyl)sulfonyl)-4-(2-((R)-2-(2-isopropylphenyl)-4-((7-methoxy-2,3-dihydrobenzofuran-5-yl)methyl)piperazin-1-yl)-7-azaspiro[3.5]nonan-7-yl)benzamide]",0.076,0.076,0.2,2.6,0.12,0.29,9.92,1.5
"COc1ccc(CN2CCN(C3CC4(C3)CN(c3ccc(C(=O)NS(=O)(=O)c5ccc(NC[C@H]6CC[C@](C)(O)CC6)c([N+](=O)[O-])c5)c(Oc5cnc6[nH]cc(F)c6c5)c3)C4)[C@H](c3ccccc3C(C)C)C2)nc1 [Example 241, 2-((3-fluoro-1H-pyrrolo[2,3-b]pyridin-5-yl)oxy)-N-((4-((((1r,4r)-4-hydroxy-4-methylcyclohexyl)methyl)amino)-3-nitrophenyl)sulfonyl)-4-(6-((R)-2-(2-isopropylphenyl)-4-((5-methoxypyridin-2-yl)methyl)piperazin-1-yl)-2-azaspiro[3.3]heptan-2-yl)benzamide]",0.035,0.035,0.096,2.7,0.15,0.32,10.33,1.3
"COc1cc(CN2CCN(C3CC4(C3)CN(c3ccc(C(=O)NS(=O)(=O)c5ccc(NC[C@H]6CC[C@](C)(O)CC6)c([N+](=O)[O-])c5)c(Oc5cnc6[nH]ccc6c5)c3)C4)[C@H](c3ccccc3C(C)C)C2)cnc1OC [Example 242, 2-((1H-pyrrolo[2,3-b]pyridin-5-yl)oxy)-4-(6-((R)-4-((5,6-dimethoxypyridin-3-yl)methyl)-2-(2-isopropylphenyl)piperazin-1-yl)-2-azaspiro[3.3]heptan-2-yl)-N-((4-((((1r,4r)-4-hydroxy-4-methylcyclohexyl)methyl)amino)-3-nitrophenyl)sulfonyl)benzamide]",0.03,0.03,0.077,2.6,0.17,0.28,10.48,1.1
"[2H]C([2H])([2H])Oc1ccc(CN2CCN(C3CC4(C3)CN(c3ccc(C(=O)NS(=O)(=O)c5ccc(NC[C@H]6CC[C@](C)(O)CC6)c([N+](=O)[O-])c5)c(Oc5cnc6[nH]ccc6c5)c3)C4)[C@H](c3ccccc3C(C)C)C2)cc1OC([2H])([2H])[2H] [Example 243, 2-((1H-pyrrolo[2,3-b]pyridin-5-yl)oxy)-4-(6-((R)-4-(3,4-bis(methoxy-d3)benzyl)-2-(2-isopropylphenyl)piperazin-1-yl)-2-azaspiro[3.3]heptan-2-yl)-N-((4-((((1r,4r)-4-hydroxy-4-methylcyclohexyl)methyl)amino)-3-nitrophenyl)sulfonyl)benzamide]",0.04,0.041,0.086,2.1,0.12,0.22,10.39,1
"COc1cc(CN2CCN(C3CC4(CCN(c5ccc(C(=O)NS(=O)(=O)c6ccc(NC[C@H]7CC[C@](C)(O)CC7)c([N+](=O)[O-])c6)c(Oc6cnc7[nH]cc(F)c7c6)c5)CC4)C3)[C@H](c3ccccc3C(C)C)C2)ccc1C1CC1 [Example 258, 4-(2-((R)-4-(4-cyclopropyl-3-methoxybenzyl)-2-(2-isopropylphenyl)piperazin-1-yl)-7-azaspiro[3.5]nonan-7-yl)-2-((3-fluoro-1H-pyrrolo[2,3-b]pyridin-5-yl)oxy)-N-((4-((((1r,4r)-4-hydroxy-4-methylcyclohexyl)methyl)amino)-3-nitrophenyl)sulfonyl) benzamide]",0.85,0.85,1.75,2.1,0.11,0.28,8.82,1.8
"COc1cc(CN2CCN(C3CC4(CCN(c5ccc(C(=O)NS(=O)(=O)c6ccc(NC[C@H]7CC[C@](C)(O)CC7)c([N+](=O)[O-])c6)c(Oc6cnc7[nH]ccc7c6)c5)CC4)C3)[C@H](c3ccccc3C(C)C)C2)ccc1C [Example 260, 2-((1H-pyrrolo[2,3-b]pyridin-5-yl)oxy)-N-((4-((((1r,4r)-4-hydroxy-4-methylcyclohexyl)methyl)amino)-3-nitrophenyl)sulfonyl)-4-(2-((R)-2-(2-isopropylphenyl)-4-(3-methoxy-4-methylbenzyl)piperazin-1-yl)-7-azaspiro[3.5]nonan-7-yl)benzamide]",0.34,0.24,0.75,2.2,0.13,0.33,9.57,1.1
"CCc1ccc(CN2CCN(C3CC4(C3)CN(c3ccc(C(=O)NS(=O)(=O)c5ccc(NC[C@H]6CC[C@](C)(O)CC6)c([N+](=O)[O-])c5)c(Oc5cnc6[nH]cc(F)c6c5)c3)C4)[C@H](c3ccccc3C(C)C)C2)cc1OC [Example 268, 4-(6-((R)-4-(4-ethyl-3-methoxybenzyl)-2-(2-isopropylphenyl)piperazin-1-yl)-2-azaspiro[3.3]heptan-2-yl)-2-((3-fluoro-1H-pyrrolo[2,3-b]pyridin-5-yl)oxy)-N-((4-((((1r,4r)-4-hydroxy-4-methylcyclohexyl)methyl)amino)-3-nitrophenyl)sulfonyl) benzamide]",0.79,0.79,1.3,1.6,0.1,0.25,9.06,1.1
"COc1cc(CN2CCN(C3CC4(CCN(c5ccc(C(=O)NS(=O)(=O)c6ccc(NC[C@H]7CC[C@](C)(O)CC7)c([N+](=O)[O-])c6)c(Oc6cnc7[nH]cc(F)c7c6)c5)CC4)C3)[C@H](c3ccccc3C(C)C)C2)ccc1C [Example 273, 2-((3-fluoro-1H-pyrrolo[2,3-b]pyridin-5-yl)oxy)-N-((4-((((1r,4r)-4-hydroxy-4-methylcyclohexyl)methyl)amino)-3-nitrophenyl)sulfonyl)-4-(2-((R)-2-(2-isopropylphenyl)-4-(3-methoxy-4-methylbenzyl)piperazin-1-yl)-7-azaspiro[3.5]nonan-7-yl)benzamide]",0.7,0.7,1.9,2.6,0.25,0.46,9.09,1.2
"COc1cc(CN2CCN(C3CC4(C3)CN(c3ccc(C(=O)NS(=O)(=O)c5ccc(NC[C@H]6CC[C@](C)(O)CC6)c([N+](=O)[O-])c5)c(Oc5cnc6[nH]ccc6c5)c3)C4)[C@H](c3ccccc3C(C)C)C2)ccc1C [Example 275, 2-((1H-pyrrolo[2,3-b]pyridin-5-yl)oxy)-N-((4-((((1r,4r)-4-hydroxy-4-methylcyclohexyl)methyl)amino)-3-nitrophenyl)sulfonyl)-4-(6-((R)-2-(2-isopropylphenyl)-4-(3-methoxy-4-methylbenzyl)piperazin-1-yl)-2-azaspiro[3.3]heptan-2-yl)benzamide]",0.27,0.27,0.54,2,0.14,0.38,9.68,0.76
CC(C)c1ccccc1[C@@H]1CN(Cc2ccc3c(c2)OCCC3)CCN1C1CC2(CCN(c3ccc(C(=O)NS(=O)(=O)c4ccc(NC[C@H]5CC[C@](C)(O)CC5)c([N+](=O)[O-])c4)c(Oc4cnc5[nH]ccc5c4)c3)CC2)C1 [Example 282],0.25,0.25,0.97,3.9,0.36,4.2,9.33,1.9
